Read-outs that look alike come from different tables or passages of the source.

For experiment [1], the target named is human TLR7 (Homo sapiens (Human), UniProt Q9NYK1). Kind of experiment: TLR7 inhibition reporter assay (HEK-Blue SEAP). In kind it is cell-based. On the technique in general: Reporter assays use an easily measured gene product as a stand-in for the process of interest.
Procedure: HEK-Blue™-cells (Invivogen) overexpressing human TLR7, TLR8 or TLR9 receptors were used for screening inhibitors of these receptors using an inducible SEAP (secreted embryonic alkaline phosphatase) reporter gene under the control of the IFN-β minimal promoter fused to five NF-κB and AP-1-binding sites. Briefly, cells are seeded into Greiner 384 well plates (15000 cells per well for TLR7, 20,000 for TLR8 and 25,000 for TLR9) and then treated with test compounds in DMSO to yield a final dose response concentration range of 0.05 nM-50 μM. After a 30 minute compound pre-treatment at room temperature, the cells are then stimulated with a TLR7 ligand (gardiquimod at a final concentration of 7.5 μM), TLR8 ligand (R848 at a final concentration of 15.9 μM) or TLR9 ligand (ODN2006 at a final concentration of 5 nM) to activate NF-κB and AP-1 which induce the production of SEAP. After a 22 hour incubation at 37° C., 5% CO2, SEAP levels are determined with the addition of HEK-Blue™ Detection reagent (Invivogen), a cell culture medium that allows for detection of SEAP, according to manufacturer's specifications.
The target of experiment [2] is human TLR8 (Homo sapiens (Human), UniProt Q9NR97). Kind of experiment: TLR8 inhibition reporter assay (HEK-Blue SEAP).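 Also: SEAP driven by IFN-β minimal promoter carrying NF-κB and AP-1 sites, compounds dosed 0.05 nM to 50 µM for 22 h, inhibition scaled between agonist-plus-DMSO and reference-inhibitor wells.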 To be noted: read-out: TLR8 IC50.
Experiment [3] deals with human TLR9 (Homo sapiens (Human), UniProt Q9NR96). Kind of experiment: TLR9 inhibition reporter assay (HEK-Blue SEAP).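 Also: SEAP driven by an IFN-β minimal promoter with NF-κB and AP-1 sites, read after 22 h, compounds dosed 0.05 nM–50 µM, inhibition scaled between agonist plus DMSO and reference-inhibitor wells.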 The following applies: read-out: TLR9 IC50.
[4] abbreviates: HEK-Blue cells overexpressing human TLR7, SEAP reporter, gardiquimod 7.5 μM.
The mark [5] stands for this setting: HEK-Blue cells overexpressing human TLR8, SEAP reporter, R848 15.9 μM.
Setting [6] is: HEK-Blue cells overexpressing human TLR9, SEAP reporter, ODN2006 5 nM.
The mark [7] stands for this setting: HEK-Blue human TLR7 cells, gardiquimod 7.5 μM.
Setting [8] is: HEK-Blue human TLR8 cells, R848 15.9 μM.
Setting [9] is: HEK-Blue human TLR9 cells, ODN2006 5 nM.
Where [10] appears, read: HEK-Blue cells overexpressing human TLR7, gardiquimod 7.5 μM stimulation, SEAP reporter.
[11] abbreviates: HEK-Blue cells overexpressing human TLR8, R848 15.9 μM stimulation, SEAP reporter.
Where [12] appears, read: HEK-Blue cells overexpressing human TLR9, ODN2006 5 nM stimulation, SEAP reporter.

human TLR9, sequence (Q9NR96 26-1032): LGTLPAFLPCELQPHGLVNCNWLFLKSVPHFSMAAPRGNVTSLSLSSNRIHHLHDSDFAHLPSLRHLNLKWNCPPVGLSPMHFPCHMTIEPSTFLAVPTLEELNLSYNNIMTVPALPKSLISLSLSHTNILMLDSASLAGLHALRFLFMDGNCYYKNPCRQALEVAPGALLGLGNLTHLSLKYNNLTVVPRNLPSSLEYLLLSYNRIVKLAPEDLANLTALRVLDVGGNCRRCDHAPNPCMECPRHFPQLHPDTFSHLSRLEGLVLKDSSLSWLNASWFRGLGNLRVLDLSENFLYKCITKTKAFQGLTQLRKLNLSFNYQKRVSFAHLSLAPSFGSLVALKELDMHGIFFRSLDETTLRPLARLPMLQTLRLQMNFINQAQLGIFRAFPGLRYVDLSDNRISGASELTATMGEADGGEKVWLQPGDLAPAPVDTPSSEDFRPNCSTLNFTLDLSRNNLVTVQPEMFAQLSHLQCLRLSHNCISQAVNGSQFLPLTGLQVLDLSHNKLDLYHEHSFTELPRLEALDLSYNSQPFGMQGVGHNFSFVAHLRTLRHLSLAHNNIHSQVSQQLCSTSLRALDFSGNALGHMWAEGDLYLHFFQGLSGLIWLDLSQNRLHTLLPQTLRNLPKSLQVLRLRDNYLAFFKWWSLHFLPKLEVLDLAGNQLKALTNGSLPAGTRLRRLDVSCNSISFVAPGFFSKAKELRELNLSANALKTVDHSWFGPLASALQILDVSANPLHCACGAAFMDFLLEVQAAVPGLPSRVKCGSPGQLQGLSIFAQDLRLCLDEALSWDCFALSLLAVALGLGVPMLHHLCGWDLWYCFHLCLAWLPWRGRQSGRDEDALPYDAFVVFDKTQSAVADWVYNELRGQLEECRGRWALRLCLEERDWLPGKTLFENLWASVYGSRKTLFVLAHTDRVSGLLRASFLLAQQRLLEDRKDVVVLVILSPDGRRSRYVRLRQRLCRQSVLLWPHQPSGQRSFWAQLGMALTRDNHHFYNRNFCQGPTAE
human TLR7, sequence (Q9NYK1 27-1049): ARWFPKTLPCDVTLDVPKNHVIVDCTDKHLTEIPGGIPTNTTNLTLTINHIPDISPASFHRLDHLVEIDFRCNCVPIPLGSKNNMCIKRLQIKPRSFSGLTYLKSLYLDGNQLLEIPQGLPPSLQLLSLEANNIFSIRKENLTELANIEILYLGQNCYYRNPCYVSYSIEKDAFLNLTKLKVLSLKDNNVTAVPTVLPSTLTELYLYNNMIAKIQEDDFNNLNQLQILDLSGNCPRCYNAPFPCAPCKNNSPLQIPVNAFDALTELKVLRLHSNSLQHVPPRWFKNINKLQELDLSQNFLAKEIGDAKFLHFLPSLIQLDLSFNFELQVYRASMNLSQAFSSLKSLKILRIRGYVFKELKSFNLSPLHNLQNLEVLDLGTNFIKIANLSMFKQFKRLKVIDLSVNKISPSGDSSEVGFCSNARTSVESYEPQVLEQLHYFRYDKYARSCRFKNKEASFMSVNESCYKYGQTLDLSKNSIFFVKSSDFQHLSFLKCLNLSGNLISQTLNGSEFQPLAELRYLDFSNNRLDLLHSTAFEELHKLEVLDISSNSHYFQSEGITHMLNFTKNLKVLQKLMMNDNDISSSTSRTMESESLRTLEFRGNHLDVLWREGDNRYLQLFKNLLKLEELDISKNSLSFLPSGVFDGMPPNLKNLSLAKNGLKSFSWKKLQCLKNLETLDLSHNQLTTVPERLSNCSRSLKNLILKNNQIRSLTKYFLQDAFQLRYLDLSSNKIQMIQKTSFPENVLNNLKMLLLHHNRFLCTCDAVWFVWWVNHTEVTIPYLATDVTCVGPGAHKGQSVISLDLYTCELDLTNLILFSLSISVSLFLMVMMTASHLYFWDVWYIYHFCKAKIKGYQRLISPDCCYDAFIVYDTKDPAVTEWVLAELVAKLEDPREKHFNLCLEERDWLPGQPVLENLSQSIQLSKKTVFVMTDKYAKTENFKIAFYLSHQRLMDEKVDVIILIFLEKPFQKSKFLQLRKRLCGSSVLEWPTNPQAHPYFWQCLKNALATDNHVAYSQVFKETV
human TLR8, sequence (Q9NR97 27-1041): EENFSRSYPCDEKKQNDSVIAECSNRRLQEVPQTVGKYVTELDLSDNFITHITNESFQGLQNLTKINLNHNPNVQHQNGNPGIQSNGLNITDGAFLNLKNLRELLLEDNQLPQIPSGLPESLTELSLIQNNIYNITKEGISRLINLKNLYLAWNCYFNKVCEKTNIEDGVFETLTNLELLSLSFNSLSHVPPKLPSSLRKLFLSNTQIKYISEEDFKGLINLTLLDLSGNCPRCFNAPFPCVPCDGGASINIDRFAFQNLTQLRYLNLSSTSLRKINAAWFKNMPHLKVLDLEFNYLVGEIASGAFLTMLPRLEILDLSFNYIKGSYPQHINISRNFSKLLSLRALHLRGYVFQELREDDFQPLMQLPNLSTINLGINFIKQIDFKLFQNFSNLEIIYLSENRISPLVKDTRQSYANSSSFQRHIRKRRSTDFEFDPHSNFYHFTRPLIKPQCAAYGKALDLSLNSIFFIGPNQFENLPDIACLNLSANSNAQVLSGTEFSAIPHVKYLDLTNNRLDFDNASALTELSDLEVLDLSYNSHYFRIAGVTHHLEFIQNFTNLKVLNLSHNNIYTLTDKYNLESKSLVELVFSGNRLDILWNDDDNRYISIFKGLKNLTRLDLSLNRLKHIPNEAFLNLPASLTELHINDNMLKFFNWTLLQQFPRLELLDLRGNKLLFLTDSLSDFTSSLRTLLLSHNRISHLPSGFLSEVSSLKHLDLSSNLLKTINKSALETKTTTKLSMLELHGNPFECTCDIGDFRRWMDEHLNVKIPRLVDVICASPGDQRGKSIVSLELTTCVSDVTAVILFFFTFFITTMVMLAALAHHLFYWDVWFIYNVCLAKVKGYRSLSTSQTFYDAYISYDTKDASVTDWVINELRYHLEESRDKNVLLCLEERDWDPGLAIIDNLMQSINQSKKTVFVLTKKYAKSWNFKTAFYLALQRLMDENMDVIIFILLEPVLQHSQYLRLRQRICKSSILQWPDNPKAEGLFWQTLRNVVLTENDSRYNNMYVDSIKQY

For the compound `Cc1c(-c2[nH]c3ccc(C4CNCCO4)nc3c2C(C)C)cn2ncnc2c1C` (stereo not drawn) [Example 662], the IC50 worked out at 1.8 nM in experiment [1] (setting [4]), 1 nM in experiment [2] (setting [5]) and 9030 nM in experiment [3] (setting [6]).
On to `Cc1c(-c2[nH]c3ccc(C4CC5(C4)CN(C4CCOCC4)C5)nc3c2C(C)C)cn2ncnc2c1C` [Example 1024], for which the IC50 is 1.8 nM in experiment [1] (setting [7]), 1.2 nM in experiment [2] (setting [8]) and 4540 nM in experiment [3] (setting [9]).
Regarding `Cc1c(-c2[nH]c3ccc(N4CCN(C(C)C)[C@H](C)C4)nc3c2C(C)C)cn2ncnc2c1C` [Example 851], the IC50 in experiment [1] (setting [7]) came out at 5.9 nM; in experiment [2] (setting [8]), 2.2 nM; in experiment [3] (setting [9]) it was 9980 nM.
For the compound `COc1cc(-c2[nH]c3cc(C)c(C4CCC(NCC(F)F)CC4)nc3c2C(C)C)cn2ncnc12` (stereo not drawn) [Example 324], the IC50 was 6.6 nM in experiment [1] (setting [10]), 240 nM in experiment [2] (setting [11]) and 20500 nM in experiment [3] (setting [12]).
The matching figures for `Cc1c(-c2[nH]c3ccc(N4CCNC[C@H]4C)nc3c2C(C)C)cn2ncnc2c1C` [Example 153]: 0.87 nM, 1.6 nM and 7150 nM.
For the compound `CC(C)c1c(-c2cn(C)c3ncncc23)[nH]c2ccc(N3CCN(C4CCOCC4)CC3)nc12` [Example 127], the IC50 in experiment [1] (setting [10]) was determined as 4.6 nM; in experiment [2] (setting [11]), 0.48 nM; in experiment [3] (setting [12]), 5900 nM.
Regarding `CCN(CC(=O)N(C)C)C1CCC(c2ccc3[nH]c(-c4cn5ncnc5c(C)c4C)c(C(C)C)c3n2)CC1` (stereo not drawn) [Example 462], the values for the IC50 in experiment [1] (setting [4]), in experiment [2] (setting [5]) and in experiment [3] (setting [6]) were 6.9 nM, 8.4 nM and 4540 nM, respectively.
The matching figures for `COc1cc(-c2[nH]c3ccc(CCC4CN(C(=O)CN(C)C)C4)nc3c2C(C)C)cn2ncnc12` [Example 699]: 12 nM, 46 nM and 430 nM.
As to `Cc1c(-c2[nH]c3ccc(N4CCN(C5COC5)CC4=O)nc3c2C(C)C)cn2ncnc2c1C` [Example 140], the 50% inhibitory concentration (IC50) in experiment [1] (setting [10]) is 127 nM; in experiment [2] (setting [11]) it was 186 nM; in experiment [3] (setting [12]), above 50000 nM.
In the case of `Cc1c(-c2[nH]c3ccc(C4CC5(C4)CN(CC(C)(C)O)C5)nc3c2C(C)C)cn2ncnc2c1C` [Example 1028], the IC50 in experiment [1] (setting [7]) was found to be 7.6 nM; in experiment [2] (setting [8]), 2.1 nM; in experiment [3] (setting [9]) it was 17000 nM.
Turning to `Cc1c(-c2[nH]c3ccc(N4CCN(C(=O)CN(C)C)[C@@H](C)C4)nc3c2C(C)C)cn2ncnc2c1C` [Example 887], the IC50 in experiment [1] (setting [7]) was determined as 0.5 nM; in experiment [2] (setting [8]), 0.68 nM; in experiment [3] (setting [9]), 8120 nM.
`Cc1c(-c2[nH]c3cc(F)c(C4CCC(N)CC4)nc3c2C(C)C)cn2ncnc2c1C` (stereo not drawn) [Example 506]: the IC50 was determined as 0.41 nM in experiment [1] (setting [4]), 0.42 nM in experiment [2] (setting [5]) and 3180 nM in experiment [3] (setting [6]).
As for `CNC(=O)C(C)(C)NC1CCC(c2ccc3[nH]c(-c4cn5ncnc5c(C)c4C)c(C(C)C)c3n2)CC1` (stereo not drawn) [Example 487], the IC50 came out at 0.75 nM in experiment [1] (setting [4]), 0.49 nM in experiment [2] (setting [5]) and 2290 nM in experiment [3] (setting [6]).
Turning to `Cc1ncc(CN(C)C2CCN(c3ccc4[nH]c(-c5cn6ncnc6c(C)c5C)c(C(C)C)c4n3)CC2)cn1` [Example 64], the IC50 was determined as 3.8 nM in experiment [1] (setting [10]), 1.6 nM in experiment [2] (setting [11]) and 5080 nM in experiment [3] (setting [12]).
Regarding `Cc1c(-c2[nH]c3ccc(N4CCN(C(=O)CN5CCOCC5(C)C)CC4)nc3c2C(C)C)cn2ncnc2c1C` [Example 950], the half-inhibitory concentration (IC50) came to 7.2 nM in experiment [1] (setting [7]), 4.9 nM in experiment [2] (setting [8]) and 36100 nM in experiment [3] (setting [9]).
As for `Cc1c(-c2[nH]c3ccc(N4[C@H](C)CN(CC(N)=O)C[C@H]4C)nc3c2C(C)C)cn2ncnc2c1C` [Example 866], the IC50 was 3.2 nM in experiment [1] (setting [7]), 74 nM in experiment [2] (setting [8]) and 47600 nM in experiment [3] (setting [9]).
Regarding `COc1ccc(-c2[nH]c3ccc(C4CCN(C5CCN(CC(C)C)CC5)CC4)nc3c2C)cc1OC` [Example 5, 2-(3,4-dimethoxyphenyl)-5-(1′-isobutyl-[1,4′-bipiperidin]-4-yl)-3-methyl-1H-pyrrolo[3,2-b]pyridine], the IC50 in experiment [1] (setting [10]) is 471 nM; in experiment [2] (setting [11]), 4060 nM; in experiment [3] (setting [12]), 37 nM.

What is called IC50 is the concentration at which inhibition is half-maximal.
